Tests used:
[1] = molecular target: T1, Sodium channel protein type 9 subunit alpha (Homo sapiens, UniProt Q15858); experiment: Inhibitory constant against voltage-gated sodium channel Nav1.7 in electrophysiology assays (EP); type: functional
[2] = molecular target: T1, Sodium channel protein type 9 subunit alpha; experiment: In vitro inhibitory concentration against voltage-gated sodium channel Nav1.7 in voltage-ion-probe-reader (VIPR) assay; type: functional
[3] = Bioavailability in rat; type: ADME, organism-based; settings: in vivo
[4] = Half life period of the compound was determined in rat; type: ADME; settings: in vivo
[5] = Clearance value of the compound was determined in plasma of rat; type: ADME, organism-based; settings: read-out: Clp

T1 sequence (Q15858 whole entry): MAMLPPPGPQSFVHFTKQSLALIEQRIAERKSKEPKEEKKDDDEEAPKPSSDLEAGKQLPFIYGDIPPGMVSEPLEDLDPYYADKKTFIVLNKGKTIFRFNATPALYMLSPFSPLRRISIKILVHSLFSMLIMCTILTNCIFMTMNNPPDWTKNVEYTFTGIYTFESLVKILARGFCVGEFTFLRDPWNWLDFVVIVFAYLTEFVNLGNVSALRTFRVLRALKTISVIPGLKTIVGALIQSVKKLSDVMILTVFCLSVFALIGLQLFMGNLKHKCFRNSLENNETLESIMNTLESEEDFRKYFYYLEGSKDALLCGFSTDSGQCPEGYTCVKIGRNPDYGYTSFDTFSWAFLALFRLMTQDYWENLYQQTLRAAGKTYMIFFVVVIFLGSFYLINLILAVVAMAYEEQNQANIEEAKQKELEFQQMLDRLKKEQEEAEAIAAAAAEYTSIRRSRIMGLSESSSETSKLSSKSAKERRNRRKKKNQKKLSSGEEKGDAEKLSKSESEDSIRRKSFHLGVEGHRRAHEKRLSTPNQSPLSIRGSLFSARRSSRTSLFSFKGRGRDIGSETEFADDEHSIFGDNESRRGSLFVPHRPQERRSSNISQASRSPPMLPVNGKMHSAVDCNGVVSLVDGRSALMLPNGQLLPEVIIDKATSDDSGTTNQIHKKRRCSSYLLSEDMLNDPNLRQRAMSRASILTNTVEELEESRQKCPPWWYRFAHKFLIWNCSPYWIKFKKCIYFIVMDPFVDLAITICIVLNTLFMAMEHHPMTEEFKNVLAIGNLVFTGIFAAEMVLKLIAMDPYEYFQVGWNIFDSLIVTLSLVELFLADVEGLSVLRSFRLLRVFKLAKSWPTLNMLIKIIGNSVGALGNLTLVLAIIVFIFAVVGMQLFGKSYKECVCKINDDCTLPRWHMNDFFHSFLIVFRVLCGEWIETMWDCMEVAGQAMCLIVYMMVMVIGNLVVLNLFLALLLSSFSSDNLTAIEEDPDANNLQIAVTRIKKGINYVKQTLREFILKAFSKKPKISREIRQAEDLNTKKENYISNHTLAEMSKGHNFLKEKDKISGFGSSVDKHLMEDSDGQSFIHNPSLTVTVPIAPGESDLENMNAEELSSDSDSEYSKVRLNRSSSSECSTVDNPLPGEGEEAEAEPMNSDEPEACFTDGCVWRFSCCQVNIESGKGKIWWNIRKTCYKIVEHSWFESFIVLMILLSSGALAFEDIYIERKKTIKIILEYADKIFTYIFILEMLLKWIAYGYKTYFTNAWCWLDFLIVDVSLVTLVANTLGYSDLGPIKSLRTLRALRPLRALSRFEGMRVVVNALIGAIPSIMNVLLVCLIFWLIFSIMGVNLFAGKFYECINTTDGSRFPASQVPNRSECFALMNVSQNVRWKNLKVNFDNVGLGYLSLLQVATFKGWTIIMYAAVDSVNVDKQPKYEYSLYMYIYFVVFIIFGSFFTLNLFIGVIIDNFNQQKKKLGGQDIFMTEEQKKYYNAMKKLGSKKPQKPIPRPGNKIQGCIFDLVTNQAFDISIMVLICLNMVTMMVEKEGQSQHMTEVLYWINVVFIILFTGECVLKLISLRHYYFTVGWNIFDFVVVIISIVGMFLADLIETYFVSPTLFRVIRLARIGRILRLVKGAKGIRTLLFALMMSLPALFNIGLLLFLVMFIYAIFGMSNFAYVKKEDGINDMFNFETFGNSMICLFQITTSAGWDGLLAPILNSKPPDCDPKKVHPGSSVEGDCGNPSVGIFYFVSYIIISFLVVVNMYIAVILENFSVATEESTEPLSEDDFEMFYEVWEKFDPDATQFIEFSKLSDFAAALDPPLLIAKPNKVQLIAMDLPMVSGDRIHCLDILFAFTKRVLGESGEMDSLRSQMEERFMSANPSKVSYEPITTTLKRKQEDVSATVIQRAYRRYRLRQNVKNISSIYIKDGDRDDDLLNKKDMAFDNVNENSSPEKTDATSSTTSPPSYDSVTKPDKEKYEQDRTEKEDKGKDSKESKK

| SMILES | Ki [1] | IC50 [2] | bioavailability [3] | half-life [4] | clearance [5] |
| --- | --- | --- | --- | --- | --- |
| NS(=O)(=O)c1ccccc1-c1ccc(CNC(=O)[C@H]2CCC[C@H]2C(=O)NCc2ccc(-c3cccs3)s2)cc1 (racemic) | 670 nM | 1600 nM | – | – | – |
| NS(=O)(=O)c1ccccc1-c1ccc(CNC(=O)[C@H]2CCCC[C@@H]2C(=O)NCc2ccc(-c3cccs3)s2)cc1 (racemic) | 2100 nM | 1400 nM | – | – | – |
| NS(=O)(=O)c1ccccc1-c1ccc(CNC(=O)[C@H]2CCC[C@@H]2C(=O)NCc2ccc(OC(F)(F)F)cc2)cc1 (racemic) | 360 nM | 300 nM | – | – | – |
| NS(=O)(=O)c1ccccc1-c1ccc(CNC(=O)[C@H]2CCC[C@@H]2C(=O)NCc2ccc(-c3cccs3)s2)cc1 (racemic) | 60 nM | 370 nM | 1.2% | 18 min | 39 mL/min/kg |
| NS(=O)(=O)c1ccccc1-c1ccc(CNC(=O)[C@H]2CCC[C@@H]2C(=O)NCc2ccccc2)cc1 (racemic) | – | 5000 nM | – | – | – |
| NS(=O)(=O)c1ccccc1-c1ccc(CNC(=O)CCC(=O)NCc2ccc(-c3cccs3)s2)cc1 | 150 nM | 150 nM | 1.9% | 30 min | 68 mL/min/kg |
| CN(Cc1ccc(-c2cccs2)s1)C(=O)[C@H]1CCC[C@@H]1C(=O)NCc1ccc(-c2ccccc2S(N)(=O)=O)cc1 (racemic) | – | 5300 nM | – | – | – |
| NS(=O)(=O)c1ccccc1-c1ccc(CNC(=O)[C@H]2CCC[C@@H]2C(=O)NCc2ccc(-c3ccccc3)cc2)cc1 (racemic) | 30 nM | 660 nM | – | – | – |
| CN(Cc1ccc(-c2ccccc2S(N)(=O)=O)cc1)C(=O)[C@H]1CCC[C@@H]1C(=O)NCc1ccc(-c2cccs2)s1 (racemic) | – | 760 nM | 3.3% | 72 min | 13 mL/min/kg |
| COc1ccc(CNC(=O)[C@H]2CCC[C@@H]2C(=O)NCc2ccc(-c3ccccc3S(N)(=O)=O)cc2)cc1 (racemic) | 12000 nM | 5000 nM | – | – | – |
| NS(=O)(=O)c1ccccc1-c1ccc(CNC(=O)c2ccccc2C(=O)NCc2ccc(-c3cccs3)s2)cc1 | 140 nM | 2200 nM | – | – | – |
| CN(Cc1ccc(-c2ccccc2S(N)(=O)=O)cc1)C(=O)[C@H]1CCC[C@@H]1C(=O)NCc1ccccc1 (racemic) | – | > 10000 nM | – | – | – |
| CN(Cc1ccc(-c2ccccc2S(N)(=O)=O)cc1)C(=O)[C@H]1CCC[C@@H]1C(=O)N(C)Cc1ccc(-c2cccs2)s1 (racemic) | – | > 10000 nM | – | – | – |
| NS(=O)(=O)c1ccccc1-c1ccc(CNC(=O)[C@H]2CCC[C@@H]2C(=O)NCc2cccc(OC(F)(F)F)c2)cc1 (racemic) | – | 1100 nM | – | – | – |
| NS(=O)(=O)c1ccccc1-c1ccc(CNC(=O)[C@H]2CC[C@@H]2C(=O)NCc2ccc(-c3cccs3)s2)cc1 (racemic) | – | 210 nM | – | – | – |
| CN(Cc1ccc(-c2ccccc2S(N)(=O)=O)cc1)C(=O)[C@H]1CCC[C@@H]1C(=O)NCc1ccc(C(F)(F)F)cc1 (racemic) | 280 nM | 2500 nM | – | – | – |
| CN(Cc1ccc(-c2ccccc2S(N)(=O)=O)cc1)C(=O)CCC(=O)NCc1cccc(OC(F)(F)F)c1 | – | – | 27% | 30 min | 141 mL/min/kg |

| SMILES | Ki [1] | IC50 [2] | bioavailability [3] | half-life [4] | clearance [5] |
| --- | --- | --- | --- | --- | --- |
| NS(=O)(=O)c1ccccc1-c1ccc(CNC(=O)CCCC(=O)NCc2ccc(-c3cccs3)s2)cc1 | – | 3200 nM | – | – | – |
| CC(NC(=O)[C@H]1CCC[C@@H]1C(=O)NCc1ccc(-c2ccccc2S(N)(=O)=O)cc1)c1ccc(-c2cccs2)s1 (mixture of isomers) | – | 10000 nM | – | – | – |
| NS(=O)(=O)c1ccccc1-c1ccc(CNC(=O)[C@H]2CCC[C@@H]2C(=O)NCc2ccc(-c3ccccc3C(F)(F)F)cc2)cc1 (racemic) | 510 nM | 370 nM | – | – | – |
| NS(=O)(=O)c1ccccc1-c1ccc(CNC(=O)/C=C\C(=O)NCc2ccc(-c3cccs3)s2)cc1 | 410 nM | 520 nM | – | – | – |
| CC(C)(CC(=O)NCc1ccc(-c2ccccc2S(N)(=O)=O)cc1)C(=O)NCc1ccc(-c2cccs2)s1 | – | 2300 nM | – | – | – |
| CC(NC(=O)[C@H]1CCC[C@@H]1C(=O)NCc1ccc(-c2cccs2)s1)c1ccc(-c2ccccc2S(N)(=O)=O)cc1 (mixture of isomers) | 50 nM | 1400 nM | – | – | – |
| NS(=O)(=O)c1ccccc1-c1ccc(CNC(=O)c2cccc(C(=O)NCc3ccc(-c4cccs4)s3)c2)cc1 | 6200 nM | 2900 nM | – | – | – |
| CN(Cc1ccc(-c2ccccc2S(N)(=O)=O)cc1)C(=O)[C@H]1CCC[C@@H]1C(=O)NCc1cccc(OC(F)(F)F)c1 (racemic) | 530 nM | 1300 nM | – | – | – |
| CN(Cc1ccc(-c2ccccc2S(N)(=O)=O)cc1)C(=O)[C@H]1CCC[C@@H]1C(=O)NCc1ccc(OC(F)(F)F)cc1 (racemic) | 210 nM | 830 nM | 44% | 58.8 min | 14 mL/min/kg |
| NS(=O)(=O)c1ccccc1-c1ccc(CNC(=O)[C@H]2CCC[C@@H]2C(=O)NCc2ccc([N+](=O)[O-])cc2)cc1 (racemic) | 2000 nM | 2800 nM | – | – | – |
| C=C1[C@H](C(=O)NCc2ccc(-c3ccccc3S(N)(=O)=O)cc2)[C@H]1C(=O)NCc1ccc(-c2cccs2)s1 (racemic) | 5700 nM | 840 nM | – | – | – |
| Cc1ccccc1-c1ccc(CNC(=O)[C@H]2CCC[C@@H]2C(=O)NCc2ccc(-c3ccccc3S(N)(=O)=O)cc2)cc1 (racemic) | 370 nM | 2100 nM | – | – | – |
| COc1ccc(CNC(=O)[C@H]2CCC[C@@H]2C(=O)N(C)Cc2ccc(-c3ccccc3S(N)(=O)=O)cc2)cc1 (racemic) | 2100 nM | 10000 nM | – | – | – |
| COc1ccccc1-c1ccc(CNC(=O)[C@H]2CCC[C@@H]2C(=O)NCc2ccc(-c3ccccc3S(N)(=O)=O)cc2)cc1 (racemic) | 690 nM | 660 nM | – | – | – |
| CC(NC(=O)[C@H]1CCC[C@@H]1C(=O)N(C)Cc1ccc(-c2ccccc2S(N)(=O)=O)cc1)c1ccc(-c2cccs2)s1 (mixture of isomers) | – | 10000 nM | – | – | – |
| NS(=O)(=O)c1ccccc1-c1ccc(CNC(=O)CC(=O)NCc2ccc(-c3cccs3)s2)cc1 | – | 860 nM | – | – | – |
| CC(C(=O)NCc1ccc(-c2ccccc2S(N)(=O)=O)cc1)C(C)C(=O)NCc1ccc(-c2cccs2)s1 (stereo not drawn) | – | 1400 nM | – | – | – |
